What all share (format): cell-based
In assay [1] the test system is human cervical tumor cell line HeLa (ATCC CCL-2). Kind of assay: SAC-Formation - Paclitaxel-Induced Assay. Conditions: Homo sapiens, HeLa, 24 h, HeLa cells, paclitaxel 0.05 μM, test range 0.005 μM-20 μM, read-out: IC50 [mol/l] SAC-Formation - Paclitaxel-Induced Assay. The method, boiled down: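 Read-out is high-content imaging of anti-phospho-H3 Ser10 (mitosis) and Hoechst 33342 (DNA, cell number), with decreased mitotic fraction marking checkpoint breakthrough. Compounds (0.005–20 μM) and 0.05 μM paclitaxel co-added to overnight-plated HeLa for 24 h at 37° C; four-parameter Hill fit.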

Assay [2] relates to HeLa-MaTu-ADR. Kind of assay: Proliferation assay (crystal violet), HeLa-MaTu-ADR. The settings on record: 96 h; HeLa-MaTu-ADR cells; 4 days incubation; crystal violet staining; read-out: IC50 inhibition of proliferation, HeLa-MaTu-ADR. How it is done: (§1) Cultivated tumor cells (cells were ordered from ATCC, except HeLa-MaTu and HeLa-MaTu-ADR, which were ordered from EPO-GmbH, Berlin) were plated at a density of 1000 to 5000 cells/well, depending on the growth rate of the respective cell line, in a 96-well multititer plate in 200 μL of their respective growth medium supplemented 10% fetal calf serum. After 24 hours, the cells of one plate (zero-point plate) were stained with crystal violet (see below), while the medium of the other plates was replaced by fresh culture medium (200 μl), to which the test substances were added in various concentrations (0 μM, as well as in the range of 0.001-10 μM; the final concentration of the solvent dimethyl sulfoxide was 0.5%). The cells were incubated for 4 days in the presence of test substances. Cell proliferation was determined by staining the cells with crystal violet: the cells were fixed by adding 20 μl/measuring point of an 11% glutaric aldehyde solution for 15 minutes at room temperature. After three washing cycles of the fixed cells with water, the plates were dried at room temperature. The cells were stained by adding 100 μl/measuring point of a 0.1% crystal violet solution (pH 3.0). After three washing cycles of the stained cells with water, the plates were dried at room temperature. The dye was dissolved by adding 100 μl/measuring point of a 10% acetic acid solution. Absorbtion was determined by photometry at a wavelength of 595 nm. The change of cell number, in percent, was calculated by normalization of the measured values to the aborbtion values of the zero-point plate (=0%) and the absorbtion of the untreated (0 μm) cells (=100%). The IC50 values were determined by means of a 4 parameter fit.

Assay [3] deals with NCI-H460. Kind of assay: Proliferation assay (crystal violet), NCI-H460. Conditions: Homo sapiens, 96 h; NCI-H460 cells; 4 days incubation; crystal violet staining; read-out: IC50 inhibition of proliferation, NCI-H460. How it is done: as §1
For assay [4], the system named is DU145. Kind of assay: Proliferation assay (crystal violet), DU145. Conditions: Homo sapiens, DU-145, 96 h; DU145 cells; 4 days incubation; crystal violet staining; read-out: IC50 inhibition of proliferation, DU145. How it is done:
as §1

The test system of assay [5] is Caco-2. The assay is described as follows: Proliferation assay (crystal violet), Caco-2. Conditions: Homo sapiens, 96 h; Caco-2 cells; 4 days incubation; crystal violet staining; read-out: IC50 inhibition of proliferation, Caco2. How it is done:
as §1

Assay [6] has as its system B16F10. Kind of assay: Proliferation assay (crystal violet), B16F10. The settings on record: Mus musculus, B16-F10, 96 h; B16F10 cells; 4 days incubation; crystal violet staining; read-out: IC50 inhibition of proliferation, B16F10. The procedure:
as §1

As for `Cc1nsc(Nc2cnc3ccccc3n2)c1C(=O)Nc1ccc(OC2CCN(C(=O)OC(C)(C)C)CC2)nc1` [Example 18, tert-Butyl 4-{[5-({[3-methyl-5-(quinoxalin-2-ylamino)-1,2-thiazol-4-yl]carbonyl}-amino)pyridin-2-yl]oxy}piperidine-1-carboxylate], the IC50 in assay [1] turned out to be 0.059 µM; in assay [2], 0.38 µM; in assay [3], 0.64 µM; in assay [4], 0.91 µM; in assay [5], 0.27 µM; in assay [6] it was 0.55 µM.

For `Cc1nsc(Nc2cncc(C(F)(F)F)n2)c1C(=O)Nc1ccc(OC2CCN(CC(F)(F)F)CC2)nc1` [Example 16, 3-Methyl-N-(6-{[1-(2,2,2-trifluoroethyl)piperidin-4-yl]oxy}pyridin-3-yl)-5-{[6-(trifluoromethyl)pyrazin-2-yl]amino}-1,2-thiazole-4-carboxamide], the IC50 in assay [1] was 0.42 µM; in assay [2] it was 0.29 µM; in assay [3] it was 0.15 µM; in assay [4] it was 0.72 µM; in assay [5], 0.24 µM; in assay [6], 0.29 µM.
